Measured values as given in patent publication US10022376B2 (Pfizer Inc., priority 2014, dated 2018).

test system: rhIFNγ stimulated STAT-3 phosphorylation in the A549 human epithelial cell line; test: A549 Cell Assay: Inhibition of pSTAT3; type: cell-based; details: Homo sapiens; A549 cells
Protocol: A549 Cell Assay: Inhibition of pSTAT3
An assay measuring the efficacy of JAK inhibitors on the functional response of recombinant human interferon γ (rhIFNγ) stimulated STAT-3 phosphorylation in the A549 human epithelial cell line.
A549 cells (ATCC #CCL-185), were plated at 30,000 cells/well in 96 well flat bottomed tissue culture plates (BD#353072) in 200 μL of growth medium (DMEM, Pfizer media prep, with 10% Fetal Bovine Serum, Sigma #F4135, 2 mM L-Glutamine, Pfizer media prep, 100 U/mL penicillin, Pfizer media prep, and 200 μg/ml streptomycin, Pfizer media prep), and cultured at 37° C., 5% CO2 incubator for 18 hours. Growth medium was removed by vacuum aspiration (V&P Scientific #vp187 bp-60), and 90 μL of pre-warmed assay medium (DMEM with 0.2% BSA, Miltenyi #130-091-376) was added to each well and incubated for 15 minutes at 37° C. 10 μL of vehicle control or test compound (final concentration range of 0.3 nM to 10 μM with 0.1% DMSO) was added to the cells. Plates were incubated at 37° C. for 1 hour. After compound incubation, 10 μL of 220 ng/mL recombinant human IFNγ (R&D Systems #285-IF, final rhIFNγ concentration of 20 ng/mL) was added to the cells and plates were incubated for 30 minutes at 37° C. Wells containing A549 cells, medium with 0.1% DMSO and no rhIFNγ were used as background controls. After rhIFNγ stimulation, media was aspirated from each well and 35 μL/well of iced-cold MSD lysis buffer containing protease and phosphatase inhibitors from Phospho-STAT3 Tyr705 assay kit (Meso-Scale Discovery #K150DID) was added to each well. Plates were incubated at 4° C. with shaking for 30 minutes. Cell lysates were assayed following the MSD Phospho-STAT3 Tyr705 assay kit protocol to detect pSTAT3.
Data were collected and transformed into percent inhibition and calculated using the following formula: […]

Q: With CCc1cc(O)c(F)cc1-c1cc2[nH]nc(C(N)=O)c2c(NCc2ccc(O)cc2N(C)S(C)(=O)=O)n1 [Example 30, 6-(2-Ethyl-5-fluoro-4-hydroxyphenyl)-4-({4-hydroxy-2-[methyl(methylsulfonyl)amino]benzyl}amino)-1H-pyrazolo[4,3-c]pyridine-3-carboxamide] as the compound, how does the IC50 read?
A: 0.164 µM

Q: For CS(=O)(=O)N(CCO)c1ccccc1CNc1nc(-c2cc(F)c(O)cc2CC(F)(F)F)nc2[nH]nc(C(N)=O)c12 [Example 101, 6-(5-fluoro-4-hydroxy-2-(2,2,2-trifluoroethyl)phenyl)-4-((2-(N-(2-hydroxyethyl)methyl-sulfonamido)benzyl)amino)-1H-pyrazolo[3,4-d]pyrimidine-3-carboxamide], which IC50 is on record?
A: > 10 µM

Q: Which IC50 does the source give for CNC(=O)c1n[nH]c2cc(-c3cc(F)c(O)cc3CC(F)(F)F)nc(NCc3ncccc3N(C)S(C)(=O)=O)c12 [Example 55, 6-[5-Fluoro-4-hydroxy-2-(2,2,2-trifluoroethyl)phenyl]-N-methyl-4-[({3-[methyl(methylsulfonyl)amino]pyridin-2-yl}methyl)amino]-1H-pyrazolo[4,3-c]pyridine-3-carboxamide] here?
A: 0.156 µM

Q: How did the IC50 turn out when CCN(c1ncccc1CNc1nc(-c2cc(F)c(O)cc2CC(F)(F)F)cc2[nH]nc(C(=O)NC)c12)S(C)(=O)=O [Example 63, 4-[({2-[ethyl(methylsulfonyl)amino]pyridin-3-yl}methyl)amino]-6-[5-fluoro-4-hydroxy-2-(2,2,2-trifluoroethyl)phenyl]-N-methyl-1H-pyrazolo[4,3-c]pyridine-3-carboxamide] was run?
A: 0.0146 µM

Q: With CN(c1ccccc1CNc1nc(-c2cc(F)c(O)cc2CC(F)(F)F)nc2[nH]nc(-c3nnc(C4CCN(C(=O)CN5CCCC5)CC4)[nH]3)c12)S(C)(=O)=O [Example 168, N-(2-{[(6-[5-Fluoro-4-hydroxy-2-(2,2,2-trifluoroethyl)phenyl]-3-{5-[1-(pyrrolidin-1-ylacetyl)piperidin-4-yl]-4H-1,2,4-triazol-3-yl}-1H-pyrazolo[3,4-d]pyrimidin-4-yl)amino]methyl}phenyl)-N-methylmethanesulfonamide] as the compound, how does the IC50 read?
A: 1.33 µM

Q: With CN(c1ccccc1CNc1nc(-c2cc(F)c(O)cc2CC(F)(F)F)cc2[nH]nc(C(N)=O)c12)S(=O)(=O)CCCN1CCOCC1 [Example 66, 6-[5-fluoro-4-hydroxy-2-(2,2,2-trifluoroethyl)phenyl]-4-{[2-(methyl{[3-(morpholin-4-yl)propyl]sulfonyl}amino)benzyl]amino}-1H-pyrazolo[4,3-c]pyridine-3-carboxamide] as the compound, how does the IC50 read?
A: 0.221 µM

Q: How did the IC50 turn out when CCc1cc(O)c(F)cc1-c1cc2[nH]nc(C(=O)NC)c2c(NCC(C)C)n1 [Example 5, 6-(2-ethyl-5-fluoro-4-hydroxyphenyl)-N-methyl-4-[(2-methylpropyl)amino]-1H-pyrazolo[4,3-c]pyridine-3-carboxamide] was run?
A: 0.0017 µM

Q: CN(c1ccccc1CNc1nc(-c2cc(F)c(O)cc2CC(F)(F)F)cc2[nH]nc(C(N)=O)c12)S(=O)(=O)c1ccc(N2CCOCC2)nc1 [Example 65, 6-[5-fluoro-4-hydroxy-2-(2,2,2-trifluoroethyl)phenyl]-4-{[2-(methyl{[6-(morpholin-4-yl)pyridin-3-yl]sulfonyl}amino)benzyl]amino}-1H-pyrazolo[4,3-c]pyridine-3-carboxamide] was tested. Which IC50 did it give?
A: 0.161 µM

Q: How did the IC50 turn out when CNC(=O)c1n[nH]c2nc(-c3cc(F)c(O)cc3CC(F)(F)F)nc(NCc3ccccc3N(C)S(=O)(=O)NC)c12 [Example 110, 6-(5-Fluoro-4-hydroxy-2-(2,2,2-trifluoroethyl)phenyl)-N-methyl-4-((2-(methyl(N-methylsulfamoyl)amino)benzyl)amino)-1H-pyrazolo[3,4-d]pyrimidine-3-carboxamide] was run?
A: > 10 µM

Q: Which IC50 does the source give for CCN(c1ccc(F)cc1CNc1nc(-c2cc(F)c(O)cc2CC(F)(F)F)cc2[nH]nc(C(N)=O)c12)S(C)(=O)=O [Example 83, 4-((2-(N-ethylmethylsulfonamido)-5-fluorobenzyl)amino)-6-(5-fluoro-4-hydroxy-2-(2,2,2-trifluoroethyl)phenyl)-1H-pyrazolo[4,3-c]pyridine-3-carboxamide] here?
A: 0.03 µM

Q: CCN(c1ccc(Cl)cc1CNc1nc(-c2cc(F)c(O)cc2CC(F)(F)F)cc2[nH]nc(C(N)=O)c12)S(C)(=O)=O [Example 84, 4-((5-chloro-2-(N-ethylmethylsulfonamido)benzyl)amino)-6-(5-fluoro-4-hydroxy-2-(2,2,2-trifluoroethyl)phenyl)-1H-pyrazolo[4,3-c]pyridine-3-carboxamide] was tested. Which IC50 did it give?
A: 0.0329 µM

Q: CN(c1ncccc1CNc1nc(-c2cc(F)c(O)cc2CC(F)(F)F)cc2[nH]nc(C(N)=O)c12)S(C)(=O)=O [Example 62, 6-[5-fluoro-4-hydroxy-2-(2,2,2-trifluoroethyl)phenyl]-4-[({2-[methyl(methylsulfonyl)amino]pyridin-3-yl}methyl)amino]-1H-pyrazolo[4,3-c]pyridine-3-carboxamide] was tested. Which IC50 did it give?
A: 0.0718 µM

Q: With CCN(c1ncc(Cl)cc1CNc1nc(-c2cc(F)c(O)cc2CC(F)(F)F)cc2[nH]nc(C(N)=O)c12)S(C)(=O)=O [Example 71, 4-[({5-chloro-2-[ethyl(methylsulfonyl)amino]pyridin-3-yl}methyl)amino]-6-[5-fluoro-4-hydroxy-2-(2,2,2-trifluoroethyl)phenyl]-1H-pyrazolo[4,3-c]pyridine-3-carboxamide] as the compound, how does the IC50 read?
A: 0.11 µM

Q: How did the IC50 turn out when CNC(=O)c1n[nH]c2cc(-c3cc(F)c(O)cc3CC(F)(F)F)nc(NCc3ccccc3N(C)S(=O)(=O)c3cccc(O)c3)c12 [Example 32, 6-[5-Fluoro-4-hydroxy-2-(2,2,2-trifluoroethyl)phenyl]-4-[(2-{[(3-hydroxyphenyl)sulfonyl](methyl)amino}benzyl)amino]-N-methyl-1H-pyrazolo[4,3-c]pyridine-3-carboxamide] was run?
A: 0.628 µM

Q: CCN(c1ccc(O)cc1CNc1nc(-c2cc(F)c(O)cc2CC(F)(F)F)cc2[nH]nc(C(=O)NC)c12)S(=O)(=O)c1ccccc1 [Example 36, 4-({2-[ethyl(phenylsulfonyl)amino]-5-hydroxybenzyl}amino)-6-[5-fluoro-4-hydroxy-2-(2,2,2-trifluoroethyl)phenyl]-N-methyl-1H-pyrazolo[4,3-c]pyridine-3-carboxamide] was tested. Which IC50 did it give?
A: 0.433 µM

Q: For CN(c1ccc(O)cc1CNc1nc(-c2cc(F)c(O)cc2CC(F)(F)F)cc2[nH]nc(C(N)=O)c12)S(=O)(=O)c1ccccc1 [Example 42, 6-[5-fluoro-4-hydroxy-2-(2,2,2-trifluoroethyl)phenyl]-4-({5-hydroxy-2-[methyl(phenylsulfonyl)amino]benzyl}amino)-1H-pyrazolo[4,3-c]pyridine-3-carboxamide], which IC50 is on record?
A: 0.645 µM

Q: How did the IC50 turn out when CN(c1ccc(F)cc1CNc1nc(-c2cc(F)c(O)cc2CC(F)(F)F)cc2[nH]nc(C(N)=O)c12)S(C)(=O)=O [Example 88, 6-[5-fluoro-4-hydroxy-2-(2,2,2-trifluoroethyl)phenyl]-4-({5-fluoro-2-[methyl(methylsulfonyl)amino]benzyl}amino)-1H-pyrazolo[4,3-c]pyridine-3-carboxamide] was run?
A: 0.0315 µM

Q: Which IC50 does the source give for CCc1cc(O)c(F)cc1-c1cc2[nH]nc(C(N)=O)c2c(NCc2ccccc2N(C)S(=O)(=O)c2ccccc2)n1 [Example 40, 6-(2-Ethyl-5-fluoro-4-hydroxyphenyl)-4-({2-[methyl(phenylsulfonyl)amino]benzyl}amino)-1H-pyrazolo[4,3-c]pyridine-3-carboxamide] here?
A: 0.05 µM

Q: CCN(c1ccccc1CNc1nc(-c2cc(F)c(O)cc2CC(F)(F)F)cc2[nH]nc(C(N)=O)c12)S(=O)(=O)CC [Example 82, 4-((2-(N-ethylethylsulfonamido)benzyl)amino)-6-(5-fluoro-4-hydroxy-2-(2,2,2-trifluoroethyl)phenyl)-1H-pyrazolo[4,3-c]pyridine-3-carboxamide] was tested. Which IC50 did it give?
A: 0.0209 µM

Q: How did the IC50 turn out when CNC(=O)c1n[nH]c2cc(-c3cc(F)c(O)cc3CC(F)(F)F)nc(NCc3cc(Cl)ccc3N(C)S(C)(=O)=O)c12 [Example 15, 4-({5-chloro-2-[methyl(methylsulfonyl)amino]benzyl}amino)-6-[5-fluoro-4-hydroxy-2-(2,2,2-trifluoroethyl)phenyl]-N-methyl-1H-pyrazolo[4,3-c]pyridine-3-carboxamide] was run?
A: 0.0924 µM

Q: With CNC(=O)c1n[nH]c2cc(-c3cc(F)c(O)cc3C3CC3)nc(NCc3ccccc3N(C)S(C)(=O)=O)c12 [Example 37, 6-(2-cyclopropyl-5-fluoro-4-hydroxyphenyl)-N-methyl-4-({2-[methyl(methylsulfonyl)amino]benzyl}amino)-1H-pyrazolo[4,3-c]pyridine-3-carboxamide] as the compound, how does the IC50 read?
A: 0.0474 µM

Q: CNC(=O)c1n[nH]c2cc(-c3cc(F)c(O)cc3CC(F)(F)F)nc(NCc3cnccc3N(C)S(C)(=O)=O)c12 [Example 48, 6-[5-fluoro-4-hydroxy-2-(2,2,2-trifluoroethyl)phenyl]-N-methyl-4-[({4-[methyl(methylsulfonyl)amino]pyridin-3-yl}methyl)amino]-1H-pyrazolo[4,3-c]pyridine-3-carboxamide] was tested. Which IC50 did it give?
A: > 10 µM
